Reference: publication PMC8151276, “An Integrated Approach toward NanoBRET Tracers for Analysis of GPCR Ligand Engagement” (Molecules, 2021)

Biological target: T1, LTB4R2 (Homo sapiens, UniProt Q9NPC1)
T1 construct: purchased Promega (in-house HiBiT-GPCR construct library, NanoBRET)
T1 sequence (Q9NPC1 1-358): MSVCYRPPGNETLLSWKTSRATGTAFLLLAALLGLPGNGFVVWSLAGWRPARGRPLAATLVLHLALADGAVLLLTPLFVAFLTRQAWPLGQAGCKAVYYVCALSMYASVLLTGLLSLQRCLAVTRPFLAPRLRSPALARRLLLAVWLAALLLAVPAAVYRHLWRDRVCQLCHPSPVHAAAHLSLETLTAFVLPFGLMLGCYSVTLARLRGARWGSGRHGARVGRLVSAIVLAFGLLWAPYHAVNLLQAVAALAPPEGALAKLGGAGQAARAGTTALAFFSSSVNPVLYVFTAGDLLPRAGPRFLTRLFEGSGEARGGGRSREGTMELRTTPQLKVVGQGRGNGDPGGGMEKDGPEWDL
Assay: NanoBRET screen HiBiT-LTB4R2 in HEK293
Type: binding
Method: Each tracer candidate was screened across the entire library of HiBiT-GPCR constructs using NanoBRET as the detection modality. As depicted in Figure 4A, the specificity of interactions was evaluated through decrease in BRET due to competitive displacement of a bound tracer by excess parental compound. Each tracer was analyzed for binding to each HiBiT-GPCR fusion in the absence and in the presence of competing parental compound. Briefly, HEK293 cells were transfected with HiBiT-GPCR constructs diluted into promoterless DNA to reduce expression and maximize translocation to the cell surface. Each tracer candidate was then screened at concentrations of 1 μM and 0.1 μM across cells expressing these fusions. Cells were treated for 1.5 h with tracer either alone or in the presence of 20 μM competing parental compound (i.e., control). BRET was measured upon addition of purified LgBiT and subsequent complementation with HiBiT genetically fused to a GPCR. The specificity of interactions was assessed through a decrease in BRET signal due to competitive displacement of the bound tracer. To further gauge the robustness of these interactions, the fold response over the control (i.e., BRETtracer/BRETcontrol) was calculated. We chose a 1.5-fold response, which translates to ≥7-fold signal over noise as the minimal threshold required to score an interaction as positive. […]. Below we highlight the screening results obtained for our exemplary fluorescent tracers based on Clozapine, Amitriptyline and AZD1283.
HiBiT-GPCR DNA constructs were diluted in 10 mM Tris pH 8 to a final concentration of 0.01 μg/μL, arrayed in 96-well plates and stored at −20 °C. For transfection, HEK293 cells were suspended in Opti-MEM (without phenol red) supplemented with 2% fetal bovine serum (Seradigm) and 100 units/mL penicillin–streptomycin (Gibco) at a final concentration of 220,000 cells/mL and dispensed into white 96-well plates at 90 μL/well. Subsequent transfections and screens were carried using an Agilent Bravo Automated Liquid Handling Platform. First, the 96-well HiBiT DNA arrays were diluted 25-fold in Opti-MEM (without serum or phenol red) to a final concentration of 0.0004 μg/μL and 20 μL of the diluted DNAs were transferred into new 96-well plates. Next, promoterless carrier DNA (1 μg/μL) was diluted 25-fold (0.04 μg/μL) and then dispensed into the diluted arrays at 20 μL/well. Following brief mixing, Viafect transfection reagent (Promega) diluted 16-fold into Opti-MEM was dispensed into the plates at 40 μL/well. After mixing by pipetting, plates were incubated for 10 min on the pipetting station deck. The DNA-transfection reagent complexes were then added to plates containing cells. To facilitate the screen, 10 μL of DNA-transfection reagent complexes were added in duplicates to the top 4 and bottom 4 rows, resulting in two identical 48-well arrays per plate. Plates with transfected cells were incubated for 18–20 h at 37 °C/5% CO2. A screen of each tracer across the entire library using two different concentrations requires duplicate plates of transfected cells. Depending on the number of tracers being screened, transfections can be scaled up using the same ratios. The next day, for each tracer, four 20× screening solutions in tracer dilution buffer (Promega) were prepared: two duplicates at final concentration of 20 μM and two duplicates at a final concentration of 2 μM. A competing unmodified compound was added to one of each duplicate at a final concentration of 400 μM. The four resulting solutions were diluted 4-fold in Opti-MEM without serum or phenol red to generate 5× solutions (5 µM and 0.5 µM tracer +/− 100 μM competing compound). To screen the library, a BioTek MultiFlo FX liquid dispenser was used to dispense 22.5 µL of tracer solution to the top 4 rows and 22.5 µL tracer + competing compound solution to the 4 bottom rows. Plates were briefly mixed on an orbital shaker and incubated for 1.5 h at room temperature. […]

| Compound | NanoBRET Fold Response (LTB4R2, tracer 0.1μM) | NanoBRET Fold Response (LTB4R2, tracer 1μM) | further results |
| --- | --- | --- | --- |
| CN1CCN(C2=Nc3cc(Cl)ccc3Nc3ccc(CNC(=O)CCOCCOCCOCCOCCNC(=O)CCc4ccc5n4[B-](F)(F)[N+]4=C(c6ccc[nH]6)C=CC4=C5)cc32)CC1 [Clozapine-b-2-NB590] | – | – | NanoBRET Fold Response (LTB4R2, 0.1μM tracer): 0.97; NanoBRET Fold Response (LTB4R2, 1μM tracer): 1.16 |
| CN(C)CCC=C1c2ccccc2CCc2ccc(C(=O)NCCNC(=O)CCOCCOCCOCCOCCNC(=O)CCc3ccc4n3[B-](F)(F)[N+]3=C(c5ccc[nH]5)C=CC3=C4)cc21 [Amitriptyline-b-2-NB590] | – | – | NanoBRET Fold Response (tracer at 0.1μM, listed as amitriptyline-b-2-NB590): 1.03; NanoBRET Fold Response (tracer at 1μM, listed as amitriptyline-b-2-NB590): 1.03 |
| CCOC(=O)c1cc(C#N)c(N2CCC(C(=O)NS(=O)(=O)Cc3ccccc3/C=C/C(=O)NCCNC(=O)CCc3ccc4n3[B-](F)(F)[N+]3=C(c5ccc[nH]5)C=CC3=C4)CC2)nc1C [AZD1283-1-NB590] | – | – | NanoBRET Fold Response (LTB4R2, 0.1μM): 1.17; NanoBRET Fold Response (LTB4R2, 1μM): 1.18 |
| CC(C)N(CC[C@H](c1ccccc1)c1cc(CCNC(=O)CCOCCOCCOCCOCCNC(=O)CCc2ccc3n2[B-](F)(F)[N+]2=C(c4ccc[nH]4)C=CC2=C3)ccc1O)C(C)C [Tolterodine-2-NB590] | 1.00 | 1.22 | – |
| CC(C)N(CC[C@H](c1ccccc1)c1cc(CCNC(=O)c2ccc(CNC(=O)CCc3ccc4n3[B-](F)(F)[N+]3=C(c5ccc[nH]5)C=CC3=C4)cc2)ccc1O)C(C)C [Tolterodine-BZ-NB590] | 0.91 | 0.95 | – |
| O=C(CCOCCOCCOCCOCCNC(=O)CCc1ccc2n1[B-](F)(F)[N+]1=C(c3ccc[nH]3)C=CC1=C2)NCCCN1CCN(C2=Nc3ccccc3Oc3ccc(Cl)cc32)CC1 [Loxapine-a-2-NB590] | 0.90 | 0.95 | – |
| CN1CCN(C2=Nc3cc(Cl)ccc3N(CC(=O)NCCOCCOCCOCCOCCNC(=O)CCc3ccc4n3[B-](F)(F)[N+]3=C(c5ccc[nH]5)C=CC3=C4)c3ccccc32)CC1 [Clozapine-c-2-NB590] | – | – | NanoBRET Fold Response (LTB4R2, 0.1μM tracer): 1.02; NanoBRET Fold Response (LTB4R2, 1μM tracer): 0.91 |
| CN(C)CCC=C1c2ccccc2CCc2ccc(C(=O)NCCNC(=O)CCOCCOCCOCCOCCNC(=O)CCc3ccc4n3[B-](F)(F)[N+]3=C(c5ccc[nH]5)C=CC3=C4)cc21 [Amitriptyline-a-2-NB590] | – | – | NanoBRET Fold Response (tracer at 0.1μM): 0.97; NanoBRET Fold Response (tracer at 1μM): 1.08 |
| Cc1nc2n(c(=O)c1CCN1CCC(c3noc4cc(F)ccc34)CC1)CCCC2OC(=O)NCCOCCOCCOCCOCCNC(=O)CCc1ccc2n1[B-](F)(F)[N+]1=C(c3ccc[nH]3)C=CC1=C2 (centres unmarked) [Risperidone-2-NB590] | 0.97 | 0.94 | – |
| COc1ccc2[nH]c(-c3ccc(CNC(=O)CCOCCOCCOCCOCCNC(=O)CCc4ccc5n4[B-](F)(F)[N+]4=C(c6ccc[nH]6)C=CC4=C5)cc3)c(CCNC(C)=O)c2n1 [AzomelatoninICO9-2-NB590] | – | – | NanoBRET Fold Response (0.1μM tracer): 1.38; NanoBRET Fold Response (1μM tracer): 0.99 |
| COc1ccccc1N1CCN(CCCCN2C(=O)c3ccc(CNC(=O)CCOCCOCCOCCOCCNC(=O)CCc4ccc5n4[B-](F)(F)[N+]4=C(c6ccc[nH]6)C=CC4=C5)cc3C2=O)CC1 [NAN-190-2-NB590] | 0.95 | 1.05 | – |
| O=C(CCc1ccc2n1[B-](F)(F)[N+]1=C(c3ccc[nH]3)C=CC1=C2)NCCOCCOCCNC(=O)OCCOCCN1CCN(C2=Nc3ccccc3Sc3ccccc32)CC1 [Quetiapine-a-2-NB590] | 1.09 | 1.04 | – |
| O=C(CCOCCOCCOCCOCCNC(=O)CCc1ccc2n1[B-](F)(F)[N+]1=C(c3ccc[nH]3)C=CC1=C2)NCCCN1CCN(C2=Nc3cc(Cl)ccc3Nc3ccccc32)CC1 [Clozapine-a-2-NB590] | – | – | NanoBRET Fold Response (LTB4R2, 0.1μM tracer): 1.03; NanoBRET Fold Response (LTB4R2, 1μM tracer): 0.88 |
| N#CN=C(NCCCOc1cccc(CN2CCCCC2)c1)NCCNC(=O)CCOCCOCCOCCOCCNC(=O)CCc1ccc2n1[B-](F)(F)[N+]1=C(c3ccc[nH]3)C=CC1=C2 [Aminopotentidine-2-NB590] | 0.96 | 1.04 | – |
| O=C(CCc1ccc2n1[B-](F)(F)[N+]1=C(c3ccc[nH]3)C=CC1=C2)NCc1ccc(C(=O)NCCOCCOCCNCC(O)COc2cccc3ccccc23)cc1 (centres unmarked) [Propranolol-3-NB590] | – | – | NanoBRET Fold Response (LTB4R2, 0.1μM): 1.01; NanoBRET Fold Response (LTB4R2, 1μM): 0.96 |
| O=C(CCc1ccc2n1[B-](F)(F)[N+]1=C(c3ccc[nH]3)C=CC1=C2)NCc1ccc(C(=O)NCCOCCC(=O)N[C@@H]2CC[C@@]3(O)[C@H]4Cc5ccc(O)c6c5[C@@]3(CCN4CC3CC3)[C@H]2O6)cc1 [Naltrexone-3-NB590] | 0.89 | 1.36 | – |
| COc1ccccc1N1CCN(CCCCN2C(=O)c3ccc(CNC(=O)CCOCCNC(=O)c4ccc(CNC(=O)CCc5ccc6n5[B-](F)(F)[N+]5=C(c7ccc[nH]7)C=CC5=C6)cc4)cc3C2=O)CC1 [NAN-190-3-NB590] | 0.76 | 1.30 | – |
| Cc1cc2c(s1)Nc1ccccc1N=C2N1CCN(CCCNC(=O)CCOCCOCCOCCOCCNC(=O)CCc2ccc3n2[B-](F)(F)[N+]2=C(c4ccc[nH]4)C=CC2=C3)CC1 [Olanzapine-a-2-NB590] | 0.97 | 1.06 | – |
| CCCn1c(=O)c2[nH]c(-c3ccc(OCC(=O)NCCNC(=O)CCOCCNC(=O)c4ccc(CNC(=O)CCc5ccc6n5[B-](F)(F)[N+]5=C(c7ccc[nH]7)C=CC5=C6)cc4)cc3)nc2n(CCC)c1=O [XAC-3-NB590] | 0.93 | 0.98 | – |
| CN(CCC=C1c2ccccc2CCc2ccccc21)C(=O)CCOCCOCCOCCOCCNC(=O)CCc1ccc2n1[B-](F)(F)[N+]1=C(c3ccc[nH]3)C=CC1=C2 [Amitriptyline-e-2-NB590] | – | – | NanoBRET Fold Response (tracer at 1μM): 1.06 |
| COc1ccc2c(n1)c(CCNC(C)=O)cn2CCNC(=O)CCc1ccc2n1[B-](F)(F)[N+]1=C(c3ccc[nH]3)C=CC1=C2 [Azamelatonin-1-NB590] | – | – | NanoBRET Fold Response (0.1μM tracer): 1.02; NanoBRET Fold Response (1μM tracer): 1.02 |
